Measurements taken from patent US8293732B2, “Antibacterial quinoline derivatives” (Janssen Pharmaceutica N.V., priority 2006, dated 2012).
In brackets after ≈: the same amount, converted by molar mass.

Experiments:
[1] = test system: Staphylococcus aureus (ATCC29213); assay: In-vitro anti-bacterial microtitre plate assay, IC90 determination (STA 1 B29213); assay type: cell-based; conditions: 90% inhibitory concentration for bacterial growth, 37° C., resazurin fluorescence; for IC90: Staphylococcus aureus, ATCC29213, 24 h; for IC90 values STA 1 B29213: 24 hours
Method: (§1) The bacteria used in this study were grown overnight in flasks containing 100 ml Mueller-Hinton Broth (Becton Dickinson—cat. no. 275730) in sterile de-ionized water, with shaking, at 37° C. Stocks (0.5 ml/tube) were stored at −70° C. until use. Bacteria titrations were performed in microtiter plates to detect the TCID50, in which the TCID50 represents the dilution that gives rise to bacterial growth in 50% of inoculated cultures.
(§2) In general, an inoculum level of approximately 100 TCID50 was used for susceptibility testing.
(§3) Flat-bottom, sterile 96-well plastic microtiter plates were filled with 180 μl of sterile deionized water, supplemented with 0.25% BSA. Subsequently, stock solutions (7.8× final test concentration) of compounds were added in 45 μl volumes in column 2. Serial five-fold dilutions (45 μl in 180 μl) were made directly in the microtiter plates from column 2 to reach column 11. Untreated control samples with (column 1) and without (column 12) inoculum were included in each microtiter plate. Depending on the bacteria type, approximately 10 to 60 CFU per well of bacteria inoculum (100 TCID50), in a volume of 100 μl in 2.8× Mueller-Hinton broth medium, was added to the rows A to H, except column 12. The same volume of broth medium without inoculum was added to column 12 in row A to H. The cultures were incubated at 37° C. for 24 hours under a normal atmosphere (incubator with open air valve and continuous ventilation). At the end of incubation, one day after inoculation, the bacterial growth was quantitated fluorometrically. Therefore resazurin (0.6 mg/ml) was added in a volume of 20 μl to all wells 3 hours after inoculation, and the plates were re-incubated overnight. A change in colour from blue to pink indicated the growth of bacteria. The fluorescence was read in a computer-controlled fluorometer (Cytofluor Biosearch) at an excitation wavelength of 530 nm and an emission wavelength of 590 nm. The % growth inhibition achieved by the compounds was calculated according to standard methods.
(§4) STA 29213 means Staphylococcus aureus (ATCC29213); SPN 6305 means Streptococcus pneumoniae (ATCC6305); MSM 607 means M. Smegmatis (ATCC607); ATCC means […].

[2] = test system: Streptococcus pneumoniae (ATCC6305); assay: In-vitro anti-bacterial microtitre plate assay, IC90 determination (SPN 1 6305); assay type: cell-based; conditions: 90% inhibitory concentration for bacterial growth, 37° C., resazurin fluorescence; for IC90 values SPN 1 6305: 24 hours; for IC90: Streptococcus pneumoniae, ATCC6305, 24 h
Method: as §1, §2, §3, §4

[3] = test system: M. Smegmatis (ATCC607); assay: In-vitro anti-bacterial activity against strain M. Smegmatis ATCC607; assay type: cell-based; conditions: 90% inhibitory concentration for bacterial growth, 37° C., Alamar Blue fluorescence; for IC90: Mycolicibacterium smegmatis, ATCC607, 48 h, read-out: IC90 values MSM 1 ATCC607; for IC90 values MSM 1 ATCC607: 48 hours
Method: Flat-bottom, sterile 96-well plastic microtiter plates were filled with 180 μl of sterile deionized water, supplemented with 0.25% BSA. Subsequently, stock solutions (7.8× final test concentration) of compounds were added in 45 μl volumes to a series of duplicate wells in column 2 so as to allow evaluation of their effects on bacterial growth. Serial five-fold dilutions (45 μl in 180 μl) were made directly in the microtiter plates from column 2 to 11 using a customised robot system (Zymark Corp., Hopkinton, Mass.). Pipette tips were changed after every 3 dilutions to minimize pipetting errors with high hydrophobic compounds. Untreated control samples with (column 1) and without (column 12) inoculum were included in each microtiter plate. Approximately 250 CFU per well of bacteria inoculum, in a volume of 100 μl in 2.8× Mueller-Hinton broth medium, was added to the rows A to H, except column 12. The same volume of broth medium without inoculum was added to column 12 in row A to H. The cultures were incubated at 37° C. for 48 hours in a humidified 5% CO2 atmosphere (incubator with open air valve and continuous ventilation). At the end of incubation, two days after inoculation, the bacterial growth was quantitated fluorometrically. Therefore Alamar Blue (10×) was added to all wells in a volume of 20 μl and plates were incubated for another 2 hours at […]
The fluorescence was read in a computer-controlled fluorometer (Cytofluor, Biosearch) at an excitation wavelength of 530 nm and an emission wavelength of 590 nm (gain 30).
as §4

Row | SMILES | IC90 [1] | IC90 values SPN 1 6305 [2] | IC90 [3] | melting point | IC90 values STA 1 B29213 [1] | IC90 values MSM 1 ATCC607 [3] | IC90 [2]
1 | COc1nc2ccc(Br)cc2cc1C(c1ccccc1)C(O)(CCCCN(C)C)COc1ccccc1 (single isomer, unassigned) [Compound 1] | 8.9 µg/mL (≈ 15.8 µM) | 8.9 µg/mL (≈ 15.8 µM) | 2.2 µg/mL (≈ 3.9 µM) | 148 °C |  |  | 
2 | COc1nc2ccc(Br)cc2cc1C(c1ccccc1)C(O)(CCCCN(C)C)COc1ccccc1 (single isomer, unassigned) [Compound 2] |  | 2.2 µg/mL (≈ 3.9 µM) |  | 151 °C | 4.5 µg/mL (≈ 7.99 µM) | 1.8 µg/mL (≈ 3.19 µM) | 
3 | COc1nc2ccc(Br)cc2cc1C(c1ccc(Cl)cc1)C(O)(CCCCN(C)C)COc1ccccc1 (single isomer, unassigned) [Compound 4] |  | 2.4 µg/mL (≈ 4.01 µM) |  | 118 °C | 1.9 µg/mL (≈ 3.18 µM) | 1.9 µg/mL (≈ 3.18 µM) | 
4 | COc1nc2ccc(Br)cc2cc1C(c1ccccc1)C(O)(CCCCN(C)C)COc1ccc(C)cc1 (single isomer, unassigned) [Compound 5] |  |  | 1.8 µg/mL (≈ 3.12 µM) | 146 °C | 4.1 µg/mL (≈ 7.1 µM) |  | 4.1 µg/mL (≈ 7.1 µM)
5 | COc1nc2ccc(Br)cc2cc1C(c1ccccc1)C(O)(CCCCN(C)C)COc1ccc(C)cc1 (single isomer, unassigned) [Compound 6] |  | 5.2 µg/mL (≈ 9 µM) |  | 130 °C | 9.2 µg/mL (≈ 15.9 µM) | 1.8 µg/mL (≈ 3.12 µM) | 
6 | COc1nc2ccccc2cc1C(c1ccc(-c2cnn(C)c2)cc1)C(O)(CCCCN(C)C)c1ccc2ccccc2c1 (single isomer, unassigned) [Compound 10] | 1.9 µg/mL (≈ 3.25 µM) |  |  | 190 °C |  | 0.4 µg/mL (≈ 0.684 µM) | 1.9 µg/mL (≈ 3.25 µM)
7 | COc1nc2ccccc2cc1C(c1ccc(-c2ccoc2)cc1)C(O)(CCCCN(C)C)c1ccc2ccccc2c1 (single isomer, unassigned) [Compound 13] |  | 2.0 µg/mL (≈ 3.5 µM) |  | 197 °C | 1.8 µg/mL (≈ 3.15 µM) | 1.3 µg/mL (≈ 2.28 µM) | 
8 | COc1nc2ccccc2cc1C(c1cccc(-c2cnc3ccccc3c2)c1)C(O)(CCCCN(C)C)c1ccc2ccccc2c1 (single isomer, unassigned) [Compound 16] | 2 µg/mL (≈ 3.17 µM) |  | 2 µg/mL (≈ 3.17 µM) | 141 °C |  |  | 2 µg/mL (≈ 3.17 µM)
9 | COc1nc2ccc(Br)cc2cc1C(c1ccccc1)C(O)(CCCCN1CCN(C)CC1)COc1ccccc1 (single isomer, unassigned) [Compound 20] |  | 9.8 µg/mL (≈ 15.8 µM) |  | 144 °C | 49.1 µg/mL (≈ 79.4 µM) | 9.8 µg/mL (≈ 15.8 µM) | 
10 | COc1nc2ccc(Br)cc2cc1C(c1ccc(Cl)cc1)C(O)(CCCCN1CCN(C)CC1)COc1ccccc1 (single isomer, unassigned) [Compound 22] |  | 11.6 µg/mL (≈ 17.8 µM) |  | 158 °C | 32.7 µg/mL (≈ 50.1 µM) | 8.2 µg/mL (≈ 12.6 µM) | 
11 | COc1nc2ccc(Br)cc2cc1C(c1ccccc1)C(O)(CCCCN1CCN(C)CC1)COc1ccc(C)cc1 (single isomer, unassigned) [Compound 24] |  | 10.0 µg/mL (≈ 15.8 µM) |  | 168 °C | 39.9 µg/mL (≈ 63.1 µM) | 10.0 µg/mL (≈ 15.8 µM) | 
12 | COc1nc2ccc(Br)cc2cc1C(c1ccccc1)C(O)(CCCCN1CCN(C)CC1)COCc1ccccc1 (single isomer, unassigned) [Compound 28] |  | 12.6 µg/mL (≈ 19.9 µM) |  | 122 °C | 10.0 µg/mL (≈ 15.8 µM) | 4.5 µg/mL (≈ 7.11 µM) | 
13 | COc1nc2ccc(Br)cc2cc1C(c1ccc2c(c1)OCO2)C(O)(CCN(C)C)c1ccccc1 (single isomer, unassigned) [Compound 30] |  | 1.7 µg/mL (≈ 3.09 µM) |  | 159 °C | 55.0 µg/mL (≈ 100 µM) | 0.4 µg/mL (≈ 0.728 µM) | 
14 | COc1nc2ccccc2cc1C(c1ccc(-c2ccncc2)cc1)C(O)(CCCCN(C)C)c1ccc2ccccc2c1 (single isomer, unassigned) [Compound 48] |  |  |  | 210 °C | 1.84 µg/mL (≈ 3.16 µM) | 1.04 µg/mL (≈ 1.79 µM) | 
15 | COc1nc2ccc(Br)cc2cc1C(c1ccoc1)C(O)(CCc1ccc(F)cc1)CCN(C)C (single isomer, unassigned) [Compound 53] | 8.58 µg/mL (≈ 15.8 µM) |  | 1.71 µg/mL (≈ 3.16 µM) | 122 °C |  |  | 
